Experimental data reported in US20250352615A1, “COMPOSITIONS AND METHODS FOR THE MODULATION OF PIEZO1 AND TRPV4” (Duke University, priority 2021, published 2025).

Legend:
pancreatic acini = experiment: Cell death assays of pancreatic acini (LDH release, Live/Dead, live-cell imaging); format: cell-based
Method: The viability of pancreatic acini with Yoda1 and CCK treatments was analyzed using the Live/Dead Cell Imaging Kit (Thermo Fisher Scientific, catalog R37601) or the LDH Release Assay Kit (Promega, catalog G1780).

human stellate cells = experiment: Gene expression (RT-PCR) in Yoda1-treated human stellate cells; format: cell-based
Method: Mouse and human stellate cells were prepared and maintained in culture as previously described Swain et al., JCI Insight 7: e158288 (2022). Summarized here: Mouse and human PSCs were isolated using collagenase digestion. Modified Krebs Henseleit Buffer (KHB) solution (100 mL) was prepared as described previously in Romac et al., Nat. Commun. 9(1): 1715 (2018). Pancreatic tissue was digested with 2 mg of collagenase NB 8 (SERVA, catalog 17456) dissolved in 10 mL of modified KHB solution containing 1 mg soybean trypsin inhibitor (SBTI 1-S; Millipore Sigma, catalog T9003) and 20 mg BSA (Thermo Fisher Scientific; BP1600-100). Digestion solution (5 mL) was used to inflate the pancreas. Pancreas with 5 mL of digestion solution was incubated in a shaking water bath for 10 minutes at 37° C. The solution was then discarded. The pancreas tissue was cut into small pieces and digested with fresh 5 mL digestion buffer. Tissue was incubated in a shaking water bath for 40 minutes at 37° C. The cells were then separated from tissue by pipetting up-down with a 10 mL pipette and passed sequentially through a 70 μm and a 40 μm cell strainer. The filtrate was centrifuged at 150×g for 3 minutes at room temperature. The cells were washed with 10 mL Leibovitz's media (Thermo Fisher Scientific, catalog 11415-064), passed through a 20 μm filter, and centrifuged at 80 g for 3 minutes at room temperature. The supernate was removed, and isolated stellate cells were plated on a thin-layered Matrigel-coated glass bottom culture plate (MatTek, P35G-0-14-C). Before plating the cells, Matrigel solution (Corning, catalog 354234) at a ratio of 1.5:100 DMEM/F12 (Thermo Fisher Scientific, catalog 11330-032) was poured onto the culture plate and incubated for 2 hours at 37° C. to form a thin layer of Matrigel coating. Matrigel mixture was removed, and the plate was washed with PBS before cells were plated. Cell culture media, DMEM/F12 with 5% FBS was used for mouse stellate cells. Fresh, human pancreatic tissue (provided by Duke University's BioRepository & Precision Pathology Center under IRB approval) was digested with collagenase as described above with modifications. Collagenase (2.5 mg) in 10 mL of modified KHB solution was used for digestion. The digested tissues were filtered through a 100 μm cell strainer. The cells were cultured with DMEM/F12 with 10% FBS in a Matrigel-coated plate. After 24 hours, the cell media was replaced with fresh media to remove unattached and dead cells. After 2 days, cells were immunostained for GFAP and used for experiments. Perinuclear fat droplets were stained with BODIPY 493/503 (4,4-Difluoro-1,3,5,7,8-Pentamethyl-4-Bora-3a,4a-Diaza-s-Indacene; Invitrogen, catalog D3922) to confirm stellate cell quiescence.
Yoda 1 was resuspended in DMSO at 25 mM stock solution. […]

[1] = Yoda1, 24 hr, human stellate cells, preliminary

Question: What does the source list for Clc1cccc(Cl)c1CSc1nnc(-c2cnccn2)s1 [Yoda1]?
Answer: acinar cell death, both Yoda1 and CCK vs individual application (pancreatic acini; Yoda1 50 μM + CCK 1 nM, WT acini): acinar cell death was greater; acinar cell morphology by live-cell imaging (pancreatic acini; Yoda1 50 μM, WT acini): caused swelling of WT pancreatic acinar cells and release of zymogen granules from the basolateral surface and gradually ruptured the cell membrane; response of acinar cells from Piezo1aci-KO mice (live-cell imaging) (pancreatic acini; Yoda1, Piezo1aci-KO acini): did not respond to Yoda1; expression of fibronectin and IL-6 (human stellate cells; Yoda1 25 μM, 24 hr): increased expression of fibronectin and IL-6; ACTA2 mRNA expression (human stellate cells; [1]): decreases ACTA2; CD10 mRNA expression (human stellate cells; [1]): increases CD10 expression; TRPV4 mRNA levels (human stellate cells; human PSCs, 24 hr, Yoda1 5 μm and 25 μM): upregulates TRPV4 expression in PSCs
